Measured values from the NIST ThermoML archive (doi:10.1016/j.jct.2008.10.016).

Tests used:
[1] = Drop volume
[2] = xn = mol fraction of the nth substance listed; details: Drop volume

CCCCCl [1-chlorobutane]
[1]
Details	surface tension liquid-gas [mN/m]
283.15 K	24.73
288.15 K	24.24
293.15 K	23.64
298.15 K	23.29
303.15 K	22.62
308.15 K	22.03
313.15 K	21.53

CCCCCl [1-chlorobutane] + CCCCCC
surface tension liquid-gas [mN/m], [2]
Details	283.15 K	288.15 K	293.15 K	298.15 K	303.15 K	308.15 K	313.15 K
x2 = 0.0493	24.17	23.68	23.11	22.74	22.08	21.5	21.04
x2 = 0.1016	23.7	23.21	22.63	22.27	21.62	21.03	20.59
x2 = 0.2048	22.96	22.46	21.88	21.52	20.89	20.28	19.84
x2 = 0.3038	22.32	21.83	21.28	20.93	20.32	19.69	19.28
x2 = 0.3967	21.82	21.32	20.79	20.43	19.83	19.18	18.79
x2 = 0.5015	21.29	20.78	20.25	19.89	19.31	18.64	18.27
x2 = 0.6086	20.85	20.31	19.77	19.39	18.82	18.14	17.81
x2 = 0.7097	20.48	19.93	19.4	19	18.46	17.77	17.47
x2 = 0.804	20.19	19.63	19.1	18.71	18.18	17.46	17.18
x2 = 0.9021	19.91	19.35	18.84	18.43	17.91	17.16	16.89
x2 = 0.9391	19.81	19.24	18.73	18.31	17.79	17.02	16.75

CCCCCCl [1-chloropentane]
[1]
Details	surface tension liquid-gas [mN/m]
283.15 K	26.02
288.15 K	25.58
293.15 K	25.02
298.15 K	24.46
303.15 K	24.02
308.15 K	23.51
313.15 K	23.02

CCCCCCl [1-chloropentane] + CCCCCC
surface tension liquid-gas [mN/m], [2]
Details	283.15 K	288.15 K	293.15 K	298.15 K	303.15 K	308.15 K	313.15 K
x2 = 0.0482	25.44	25.02	24.53	24.02	23.59	23.11	22.64
x2 = 0.1185	24.7	24.3	23.83	23.35	22.95	22.45	22.02
x2 = 0.1991	24	23.59	23.09	22.64	22.24	21.71	21.3
x2 = 0.308	23.2	22.76	22.25	21.78	21.37	20.8	20.41
x2 = 0.3925	22.62	22.17	21.67	21.2	20.75	20.16	19.8
x2 = 0.5087	21.91	21.44	20.94	20.47	20.03	19.4	19.05
x2 = 0.5953	21.41	20.94	20.47	20.02	19.56	18.91	18.56
x2 = 0.7076	20.85	20.37	19.9	19.45	18.98	18.3	18
x2 = 0.7889	20.47	19.98	19.5	19.04	18.56	17.88	17.58
x2 = 0.9069	19.97	19.44	18.94	18.5	17.99	17.25	16.99
x2 = 0.9474	19.81	19.24	18.74	18.29	17.79	17.05	16.77

CCCCCC [hexane]
[1]
Details	surface tension liquid-gas [mN/m]
283.15 K	19.63
288.15 K	19.04
293.15 K	18.52
298.15 K	18.06
303.15 K	17.53
308.15 K	16.74
313.15 K	16.47
